Target: TNFα (Homo sapiens, UniProt P01375)
Test: TNF induced HEK-Blue assay (NF-kB-driven secreted alkaline phosphatase reporter)
Type: cell-based
Settings: TNFα 0.5 ng/mL, HEK-Blue-CD40L cells, 18 h; read-out: TNF induced HEK-Blue assay IC50 value
How it was run: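 HEK-Blue-CD40L cells (NF-kB-driven SEAP reporter), 20,000/well, added after 30 min pre-incubation of compound (0.004–25 μM final) with TNFα 0.5 ng/mL final at 37 °C; 18 h incubation. SEAP read with QUANTI-Blue at 620 nm; IC50 from 4-parameter logistic fit, normalized to unstimulated and stimulated DMSO controls.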

Sequence of TNFα (P01375 77-233 limits assumed): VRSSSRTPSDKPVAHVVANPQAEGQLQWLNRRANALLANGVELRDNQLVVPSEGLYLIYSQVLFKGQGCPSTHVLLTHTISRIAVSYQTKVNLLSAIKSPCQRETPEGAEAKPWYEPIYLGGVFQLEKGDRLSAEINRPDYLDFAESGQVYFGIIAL

Row | Structure (SMILES) | IC50 [nM]
1 | C[C@@H](Nc1c(Cl)cnc2ccccc12)c1cc(-c2cnn(C)c2)ccc1F [Example 454, (R)-3-chloro-N-(1-(2-fluoro-5-(1-methyl-1H-pyrazol-4-yl)phenyl)ethyl)quinolin-4-amine] | < 1000
2 | C[C@@H](Nc1c(Cl)cnc2ccccc12)c1cc(-c2cn[nH]c2)ccc1F [Example 455, (R)-3-chloro-N-(1-(2-fluoro-5-(1H-pyrazol-4-yl)phenyl)ethyl)quinolin-4-amine] | < 1000
3 | COc1ccc(F)c([C@@H](C)Nc2ccnc3ccc(Cl)cc23)c1 [Example 456, (R)-6-chloro-N-(1-(2-fluoro-5-methoxyphenyl)ethyl)quinolin-4-amine] | 10000 to 25000
4 | C=CCOc1ccc(F)c([C@@H](C)Nc2c(Cl)cnc3ccccc23)c1 [Example 457, (R)—N-(1-(5-(allyloxy)-2-fluorophenyl)ethyl)-3-chloroquinolin-4-amine] | 1000 to 10000
5 | C[C@@H](Nc1c(Cl)cnc2ccccc12)c1cc(OCCCO)ccc1F [Example 458, (R)-3-(3-(1-((3-chloroquinolin-4-yl)amino)ethyl)-4-fluorophenoxy)propan-1-ol] | 1000 to 10000
6 | C[C@@H](Nc1c(Cl)cnc2ccccc12)c1cc(-c2ccccc2)ccc1F [Example 459, (R)-3-chloro-N-(1-(4-fluoro-[1,1′-biphenyl]-3-yl)ethyl)quinolin-4-amine] | < 1000
7 | COc1ccc(-c2ccc(F)c([C@@H](C)Nc3c(Cl)cnc4ccccc34)c2)cn1 [Example 460, (R)-3-chloro-N-(1-(2-fluoro-5-(6-methoxypyridin-3-yl)phenyl)ethyl)quinolin-4-amine] | < 1000
8 | C[C@@H](Nc1c(Cl)cnc2ccccc12)c1cc(-c2cccnc2)ccc1F [Example 461, (R)-3-chloro-N-(1-(2-fluoro-5-(pyridin-3-yl)phenyl)ethyl)quinolin-4-amine] | < 1000
9 | COc1cccc([C@@H](C)Nc2c(Cl)cnc3ccccc23)c1 [Example 462, (R)-3-chloro-N-(1-(3-methoxyphenyl)ethyl)quinolin-4-amine] | 10000 to 25000
10 | C[C@@H](Nc1c(Cl)cnc2ccccc12)c1ccccc1C(F)(F)F [Example 463, 3-chloro-N-(1-(2-(trifluoromethyl)phenyl)ethyl)quinolin-4-amine] | 10000 to 25000
11 | C[C@@H](Nc1c(Cl)cnc2ccccc12)c1cc(CCCO)ccc1F [Example 464, (R)-3-(3-(1-((3-chloroquinolin-4-yl)amino)ethyl)-4-fluorophenyl)propan-1-ol] | 1000 to 10000
12 | C[C@@H](Nc1c(Cl)cnc2ccccc12)c1cc(-c2cnn(CC(C)(C)O)c2)ccc1F [Example 465, (R)-1-(4-(3-(1-((3-chloroquinolin-4-yl)amino)ethyl)-4-fluorophenyl)-1H-pyrazol-1-yl)-2-methylpropan-2-ol] | 1000 to 10000
13 | C[C@@H](Nc1c(Cl)cnc2ccccc12)c1cc(-c2cnn(Cc3ccccc3)c2)ccc1F [Example 466, (R)—N-(1-(5-(1-benzyl-1H-pyrazol-4-yl)-2-fluorophenyl)ethyl)-3-chloroquinolin-4-amine] | 10000 to 25000
14 | C[C@@H](Nc1c(Cl)cnc2ccccc12)c1cc(-c2cnc(N3CCOCC3)nc2)ccc1F [Example 467, (R)-3-chloro-N-(1-(2-fluoro-5-(2-morpholinopyrimidin-5-yl)phenyl)ethyl)quinolin-4-amine] | 1000 to 10000
15 | C[C@@H](Nc1c(Cl)cnc2ccccc12)c1cc(-c2ccncc2)ccc1F [Example 468, (R)-3-chloro-N-(1-(2-fluoro-5-(pyridin-4-yl)phenyl)ethyl)quinolin-4-amine] | 1000 to 10000
16 | C[C@@H](Nc1c(Cl)cnc2ccccc12)c1cc(-c2cnc(C(C)(C)O)nc2)ccc1F [Example 469, (R)-2-(5-(3-(1-((3-chloroquinolin-4-yl)amino)ethyl)-4-fluorophenyl)pyrimidin-2-yl)propan-2-ol] | 1000 to 10000
17 | Cc1ccc(Br)cc1Nc1c(Cl)c(C)nc2ccccc12 [Example 470, N-(5-bromo-2-methylphenyl)-3-chloro-2-methylquinolin-4-amine] | 10000 to 25000
18 | C[C@@H](Nc1c(Cl)cnc2ccccc12)c1cc(-c2cnn(C(F)F)c2)ccc1F [Example 471, (R)-3-chloro-N-(1-(5-(1-(difluoromethyl)-1H-pyrazol-4-yl)-2-fluorophenyl)ethyl) quinolin-4-amine] | 1000 to 10000
19 | C[C@@H](Nc1c(Cl)cnc2ccccc12)c1cc(-c2cn(C)nc2C(F)(F)F)ccc1F [Example 472, (R)-3-chloro-N-(1-(2-fluoro-5-(1-methyl-3-(trifluoromethyl)-1H-pyrazol-4-yl)phenyl)ethyl)quinolin-4-amine] | 1000 to 10000

Row | Structure (SMILES) | IC50 [nM]
20 | CCn1cc(-c2ccc(F)c([C@@H](C)Nc3c(Cl)cnc4ccccc34)c2)cn1 [Example 473, (R)-3-chloro-N-(1-(5-(1-ethyl-1H-pyrazol-4-yl)-2-fluorophenyl)ethyl)quinolin-4-amine] | < 1000
21 | Cc1c(-c2ccc(F)c([C@@H](C)Nc3c(Cl)cnc4ccccc34)c2)cnn1C [Example 474, (R)-3-chloro-N-(1-(5-(1,5-dimethyl-1H-pyrazol-4-yl)-2-fluorophenyl)ethyl)quinolin-4-amine] | < 1000
22 | Cc1ncccc1-c1ccc(F)c([C@@H](C)Nc2c(Cl)cnc3ccccc23)c1 [Example 475, (R)-3-chloro-N-(1-(2-fluoro-5-(2-methylpyridin-3-yl)phenyl)ethyl)quinolin-4-amine] | 1000 to 10000
23 | COc1ccc(F)c([C@H](C)Nc2c(Cl)cnc3ccccc23)c1 [Example 476, (S)-3-chloro-N-(1-(2-fluoro-5-methoxyphenyl)ethyl)quinolin-4-amine] | 1000 to 10000
24 | Cc1cc(-c2ccc(F)c([C@@H](C)Nc3c(Cl)cnc4ccccc34)c2)cnn1 [Example 477, (R)-3-chloro-N-(1-(2-fluoro-5-(6-methylpyridazin-4-yl)phenyl)ethyl)quinolin-4-amine] | 1000 to 10000
25 | C[C@@H](Nc1c(Cl)cnc2ccccc12)c1cc(-c2ccc(N)nc2)ccc1F [Example 478, (R)—N-(1-(5-(6-aminopyridin-3-yl)-2-fluorophenyl)ethyl)-3-chloroquinolin-4-amine] | < 1000
26 | C[C@@H](Nc1c(Cl)cnc2ccccc12)c1cc(-c2cncnc2)ccc1F [Example 479, (R)-3-chloro-N-(1-(2-fluoro-5-(pyrimidin-5-yl)phenyl)ethyl)quinolin-4-amine] | < 1000
27 | C[C@@H](Nc1c(Cl)cnc2ccccc12)c1cc(-c2cnn(CCN3CCOCC3)c2)ccc1F [Example 480, (R)-3-chloro-N-(1-(2-fluoro-5-(1-(2-morpholinoethyl)-1H-pyrazol-4-yl)phenyl)ethyl)quinolin-4-amine] | 10000 to 25000
28 | C[C@@H](Nc1c(Cl)cnc2ccccc12)c1cc(-c2cnc(N)nc2)ccc1F [Example 481, (R)—N-(1-(5-(2-aminopyrimidin-5-yl)-2-fluorophenyl)ethyl)-3-chloroquinolin-4-amine] | < 1000
29 | CC(=O)NC(CO)c1ccc(-c2ccc3ncc(Cl)c(N[C@H](C)c4ccccc4F)c3c2)cc1 (stereo partly drawn) [Example 482, N-(1-(4-(3-chloro-4-(((R)-1-(2-fluorophenyl)ethyl)amino)quinolin-6-yl)phenyl)-2-hydroxyethyl)acetamide] | 10000 to 25000
30 | C[C@@H](Nc1c(Cl)cnc2ccc(-c3ccc(C4(NC(N)=O)CCC4)cc3)cc12)c1ccccc1F [Example 483, (R)-1-(1-(4-(3-chloro-4-((1-(2-fluorophenyl)ethyl)amino)quinolin-6-yl)phenyl)cyclobutyl)urea] | 1000 to 10000
31 | Cc1ccc(F)c(C(C)Nc2c(Cl)cnc3ccc(-c4cnc(N5CCNC(=O)C5)nc4)cc23)n1 (stereo not shown) [Example 484, 4-(5-(3-chloro-4-((1-(3-fluoro-6-methylpyridin-2-yl)ethyl)amino)quinolin-6-yl)pyrimidin-2-yl)piperazin-2-one] | < 1000
32 | CC(C)(O)c1ncc(-c2nc3c(N[C@H](c4cc(C(=O)O)ccc4F)C(F)F)c(Cl)cnc3cc2F)cn1 [Example 485, (R)-3-(1-((3-chloro-7-fluoro-6-(2-(2-hydroxypropan-2-yl)pyrimidin-5-yl)-1,5-naphthyridin-4-yl)amino)-2,2-difluoroethyl)-4-fluorobenzoic acid] | 1000 to 10000
33 | CC(C)(O)c1ncc(-c2nc3c(N[C@H](c4cc(CO)ccc4F)C(F)F)c(Cl)cnc3cc2F)cn1 [Example 486, (R)-2-(5-(7-chloro-8-((2,2-difluoro-1-(2-fluoro-5-(hydroxymethyl)phenyl)ethyl)amino)-3-fluoro-1,5-naphthyridin-2-yl)pyrimidin-2-yl)propan-2-ol] | < 1000
34 | CC(C)(O)c1ncc(-c2nc3c(N[C@H](c4cc(C(N)=O)ccc4F)C(F)F)c(Cl)cnc3cc2F)cn1 [Example 487, (R)-3-(1-((3-chloro-7-fluoro-6-(2-(2-hydroxypropan-2-yl)pyrimidin-5-yl)-1,5-naphthyridin-4-yl)amino)-2,2-difluoroethyl)-4-fluorobenzamide] | < 1000
35 | CC(C)(O)c1ncc(-c2nc3c(N[C@H](c4cc(C(O)CO)ccc4F)C(F)F)c(Cl)cnc3cc2F)cn1 (stereo partly drawn) [Example 488, 1-(3-((R)-1-((3-chloro-7-fluoro-6-(2-(2-hydroxypropan-2-yl)pyrimidin-5-yl)-1,5-naphthyridin-4-yl)amino)-2,2-difluoroethyl)-4-fluorophenyl)ethane-1,2-diol] | < 1000
36 | CC(C)(O)c1ncc(-c2nc3c(N[C@H](c4cc(C#N)ccc4F)C(F)F)c(Cl)cnc3cc2F)cn1 [Example 489, (R)-3-(1-((3-chloro-7-fluoro-6-(2-(2-hydroxypropan-2-yl)pyrimidin-5-yl)-1,5-naphthyridin-4-yl)amino)-2,2-difluoroethyl)-4-fluorobenzonitrile] | < 1000
37 | C[C@@H](Nc1c(Cl)cnc2ccc(-c3ccc(C(C)(C)O)cc3)cc12)c1cnccn1 [Example 490, (R)-2-(4-(3-chloro-4-((1-(pyrazin-2-yl)ethyl)amino)quinolin-6-yl)phenyl)propan-2-ol] | < 1000
